Experimental data from US20190021323A1, “Use of Gibberellin A5 to Increase the Yield and Quality of Wine Grapes” (UTI Limited Partnership, priority 2016, published 2019).

What was measured:
[1] = system: Thompson seedless table grape vines; settings: applied about three weeks before bloom; cited from earlier work
[2] = system: Vitis vinifera L. cv. Malbec; test: Field trial 2014-2015: GA5, GA4, GA4/7 bunch dip or spray on cv. Malbec grapevines (Example 3); format: in vivo
Method: (§1) A third trial was done in the same vineyard used for the trials outlined in Examples 1 and 2. Grapevines were selected from a clone of Vitis vinifera L. cv. Malbec, planted in 1997 on their own roots in a commercial vineyard located in Gualtallary, Mendoza, Argentina (1450 m above sea level, 69°15′37″ W and 33°23′51″ S). The vines were trained on a vertical trellis system arranged in north-south oriented rows spaced 2 m apart, with 1.20 m between plants within the row. The grapevines were maintained with no soil water restriction during the whole experiment by the use of a drip irrigation system (4 liters per plant per night), and the fruiting vines were protected with anti-hail nets (black polyethylene).
The effects of two concentrations (i.e., 10 mg/L and 50 mg/L) of three different gibberellin compositions (GA5, GA4, and a mixture of GA4 and GA7 referred to as “GA4/7”) on berry and bunch development and quality in treated cv. […] All of the treatment solutions, including the water controls, contained 0.1% v/v of the surfactant TRITON®-X and a minimal amount of 96% EtOH to dissolve the various GA5, GA4, and GA4/7 powders (the control treatments also included a minimal amount of 96% EtOH).
The effects of GA applications were assessed at two stages of berry development. The first group of test plants was treated at 60 DBV (i.e. 31 DAF) while a second group of test plants was treated at 30 DBV (i.e. 61 DAF). At each application stage, the groups of test plants receiving selected treatments were each divided into two subsets. The developing berry bunches on the first subset of plants for a selected treatment were treated by submerging into a 750-mL volume of the test solution for a period of 15 sec during late afternoon. The second subset of plants was treated with a spray application of 150 mL of test solution per each test plant. The spray applications were made in late afternoon.
For each of the two application stages, a randomized complete block design with 14 treatments and 5 blocks was used for a […]. The experimental unit consisted of one plant selected as being “typical” among 6 consecutive plants in a selected row. Each row was a replicate, i.e., a “block”. There were thus 40 experimental units (plants) utilized for each growth regulator. All the grapevines in the 5 replicate rows were pruned to 8 “fruiting” shoots and the crop load on each shoot was thinned to two bunches per shoot at the beginning of the experiment (31 DAF or 60 DBV). One shoot per experimental unit was selected, marked and used for the non-destructive measurements (shoot length, number of leaves and leaf area), while the rest of the shoots were used for berry sampling.
(§2) At harvest, the two selected and marked bunches from one fruiting shoot per experimental unit, i.e. not used for berry sampling, were collected in nylon bags and weighed. Then the number of berries per bunch was counted.
Samples of 25 berries per experimental unit were randomly collected in nylon bags (5 berries from each bunch; two top berries, two middle berries, one bottom berry; for each test vine, berries were collected from 5 bunches exposed to the west). These berry samples were taken at 132 DAF (132 DAF being the time of ripe berry harvest). The berries were kept on dry ice to prevent enzyme activity and dehydration and were taken quickly to the laboratory where berry fresh weights (FW) were determined before the berries were stored at −20° C. Then, 15 berries per experimental unit were defrosted at ambient room temperature after which, the skins were separated from fruit pulp and seeds by hand. The fruit pulp was collected in nylon bags, crushed by hand pressing and the relative concentration of sugars (°Brix) was measured in the pulp juice with a PAL-1 digital hand-held refractometer (Atago Co., Ltd., Tokyo, Japan). The °Brix was multiplied by the berries' FW to calculate sugar on a per berry basis (absolute amounts). […]

[3] = system: Vitis vinifera L. cv. Malbec; test: Field trial 2010-2011: GA5 bunch dip on cv. Malbec grapevines (Example 1); format: in vivo
Method: as §1, with “Grapevines” for “A third trial was done in the same vineyard used for the trials outlined in Examples 1 and 2. Grapevines”
The treatments were applied by submerging all of the fruit bunches on each vine in a treatment group in the selected aqueous solution (fruit bunches from control vines were submerged in water). All of the treatment solutions, including the water controls, contained 0.1% v/v of the surfactant TRITON®-X (TRITON is a registered trademark of the Dow Chemical Co., Indianapolis, Ind., USA) and a minimal amount of 95% EtOH to dissolve the GA5 powders (the control treatments also included a minimal amount of 95% EtOH). The treatments were applied three times; 56 days after flowering (DAF; i.e., 35 days before veraison—“DBV”), 70 DAF (i.e., 21 DBV), and 91 DAF (i.e., 0 DBV). The 91 DAF treatment time corresponded to veraison. Each berry bunch on a test vine was submerged in 750 mL of the selected treatment solution for 15 sec during a late afternoon time period.
A randomized complete block design with 4 treatments and 5 blocks was used during the 2010-2011 production season. The experimental unit consisted of one plant selected as being “typical” among 6 consecutive plants in a selected row. Each row was a replicate, i.e., a “block”. There were thus 5 experimental units (plants) utilized for each treatment, one for each row (block). All the grapevines in the 5 replicate rows were pruned to 8 “fruiting” shoots and the crop load on each shoot was thinned to two bunches per shoot at 40 days after flowering (DAF). One shoot per experimental unit was selected, marked and used for the non-destructive measurements (shoot length, number of leaves and leaf area), while the rest of the shoots were used for berry sampling.
(§3) Shoot length, number of leaves and midrib (main vein) length of all leaves were measured at: (i) 56 DAF/35 DBV just before application of the first set of treatments, and (ii) 132 DAF (harvest date). At the 132 DAF, all of the leaves from 10 randomly selected shoots were collected in nylon bags, kept on ice to prevent dehydration, and were taken to the laboratory where the length of the leaf midribs, weights of separated leaves, and the weights of 1-cm^2 leaf discs were determined. Then, the leaf areas (LA) were calculated and, based on the weights, a linear regression model between the LA and the midrib length was generated. The correlation coefficient (r^2) was 0.91 and thus the model was used to transform the non-destructive measurements of midrib length into LA values.
At 132 DAF, the two selected and marked bunches from one fruiting shoot per experimental unit, i.e. not used for berry sampling, were collected in nylon bags and weighed. Then the number of berries per bunch was counted.
Finally, in the next year's flowering and fruiting season (early 2012) the number of fruit clusters bunches per shoot were counted in order to assess GA5 treatment effects on return bloom.

[4] = system: Vitis vinifera L. cv. Malbec; test: Field trial 2012-2013: GA5 bunch dip once at 30 DBV on cv. Malbec grapevines (Example 2); format: in vivo
Method: as §1, with “second” for “third”, “trial” for “trials”, “Example 1.” for “Examples 1 and 2.”
The treatments were applied by submerging all of the fruit bunches on each vine in a treatment group in the selected aqueous solution (fruit bunches from control vines were submerged in water). All of the treatment solutions, including the water controls, contained 0.1% v/v of the surfactant TRITON®-X and a minimal amount of 95% EtOH to dissolve the GA5 powders (the control treatments also included a minimal amount of 95% EtOH). All treatments were applied once at 30 DBV (i.e. 61 DAF). Each berry bunch on a test vine was submerged in 750 mL of the selected treatment solution for 15 sec during a late afternoon time period.
A randomized complete block design with 5 treatments and 5 blocks was used during the 2012-2013 production season. The experimental unit consisted of one plant selected as being “typical” among 6 consecutive plants in a selected row. Each row was a replicate, i.e., a “block”. There were thus 5 experimental units (plants) utilized for each treatment, one for each row (block). All the grapevines in the 5 replicate rows were pruned to 8 “fruiting” shoots and the crop load on each shoot was thinned to two bunches per shoot at 40 days after flowering (DAF). One shoot per experimental unit was selected, marked and used for the non-destructive measurements (shoot length, number of leaves and leaf area), while the rest of the shoots were used for berry sampling.
as §3, with “30” for “56 DAF/35”, “at harvest.” for “132 DAF (harvest date).”, “harvest,” for “the 132 DAF,”
as §2

[5] = 10 and 50 mg/L, submersion and spraying, 60 DBV and 30 DBV, vs controls

Which Berry cluster compactness [1] does the source give for `C=C1C[C@]23C[C@@]1(O)CC[C@H]2[C@@]12C=C[C@H](O)[C@@](C)(C(=O)O1)[C@H]2[C@@H]3C(=O)O` [GA3, gibberellic acid] here?
Its Berry cluster compactness is “reduce berry cluster compactness”.

And the Fruit set [1]?
The Fruit set was “reduce fruit set”.

With `C=C1C[C@]23C[C@H]1CCC2[C@@]12CC[C@H](O)C(C)(C(=O)O1)C2[C@@H]3C(=O)O` (stereo partly drawn) [GA4, gibberellin A4] as the molecule, how does the “Harvest yield (average per bunch fresh weight), significance vs controls” value ([2]; 8 rate/method/stage combinations, FIG. 8A) read?
The value was “significantly different from the controls in 5 out of 8 rates”.

What about the “Anthocyanin content per berry skin” value [2, 5] of the same molecule?
Its value is “appreciable increases”.

And the “Average per bunch fresh weight” value [2, 5]?
The value was “increased”.

What about the “Dry weight per individual berry” value [2, 5] of the same molecule?
The value was “tended to be generally increased”.

What about the “Number of berries per bunch” value [2, 5] of the same molecule?
The value was “increased”.

What about the “Sugar content per berry” value [2, 5] of the same molecule?
Its value is “tended to result in increased”.

What about the “Total polyphenol index (TPI) per berry skin” value [2, 5] of the same molecule?
Its value is “appreciable increases”.

Which results are given for `C=C1C[C@]23C[C@@]1(O)CC[C@H]2[C@@]12CC=C[C@@](C)(C(=O)O1)[C@H]2[C@@H]3C(=O)O` [GA5, gibberellin A5]?
Vegetative growth of shoots (shoot length, number of leaves) ([3]; 5, 50, 250 mg/L, bunch dip at 35, 21 and 0 DBV, post-56 DAF to harvest, vs controls, FIGS. 1A-1C): not significantly affected; Return bloom: number of fruit clusters (bunches) per shoot in the following season ([3]; assessed early 2012, FIG. 2C): no significant effects; Per bunch fresh weight of grape berry bunches ([3]; lower GA5 application rates, dip at 56, 70 and 91 DAF, harvested at 132 DAF, FIG. 2A): significant increases; Number of berries per bunch ([3]; lower GA5 application rates, dip at 56, 70 and 91 DAF, harvested at 132 DAF, FIG. 2B): significant increases; Leaf surface area per shoot ([3]; lower concentrations 5 mg/L, 50 mg/L, bunch dip at 35, 21 and 0 DBV, FIG. 1C): tended to reduce; Shoot length, significance vs Control ([4]; 5 mg/L, dip once at 30 DBV, FIG. 3A): statistically significantly different from the Control; Per bunch fresh weight ([4]; 20 mg/L, dip once at 30 DBV, FIG. 4A): significantly increased; Number of berries per bunch ([4]; 20 mg/L, dip once at 30 DBV, FIG. 4B): significantly increased; Grape yield per plant and per hectare ([4]; 20 mg/L, inferred from bunch weight): appreciably increased; Shoot length ([4]; all four treatments 5, 20, 50, 250 mg/L, dip once at 30 DBV, at harvest, FIG. 3A): decreased; Leaf surface area per shoot ([4]; all four treatments 5, 20, 50, 250 mg/L, dip once at 30 DBV, at harvest, FIG. 3B): decreased; Anthocyanin content per berry skin [2, 5]: tended to be generally increased; Average per bunch fresh weight [2, 5]: increased; Dry weight per individual berry [2, 5]: generally increased; Fresh weight per individual berry [2, 5]: generally increased; Number of berries per bunch [2, 5]: increased; Sugar content per berry [2, 5]: (non-significant) increased; Total polyphenol index (TPI) per berry skin [2, 5]: tended to be generally increased
